Results published in the OPERA property sets (Mansouri et al. 2018).

Row | Compound | boiling point [°C] | log10 vapour pressure (mmHg) | melting point [°C] | ready biodegradability | log10 Henry constant (atm·m³/mol) | log10 Koa | log10 Koc (L/kg)
1 | C=CCc1ccc(OC(C)=O)c(OC)c1 | 281 | -2.5 | 30.5 |  |  |  | 
2 | CC(C)(C)c1ccc2ccccc2c1 | 276 |  | -4 |  |  |  | 
3 | CCOc1ccc([Si](C)(C)CCCc2ccc(F)c(Oc3ccccc3)c2)cc1 |  | -7.73 |  |  |  |  | 
4 | O=C(Nc1ccccc1Cl)c1ccccc1 |  |  | 99 |  |  |  | 
5 | C=C(C)CC(C)=O | 124 | 1.18 | -72.6 |  |  |  | 
6 | Nc1ccc([N+](=O)[O-])c2c1C(=O)c1c(Cl)ccc(Cl)c1C2=O |  | -12.4 | 307 |  |  |  | 
7 | N#Cc1cccc(C#N)c1 |  |  | 162 | not readily biodegradable |  |  | 
8 | NC(=O)NC(=O)Cc1ccccc1 |  |  | 215 |  |  |  | 
9 | COC(=O)CCCCCCCCCCC(=O)OC |  |  | 31.9 |  |  |  | 
10 | C=CC(C)C(C)O (stereo unspecified) | 126 |  |  |  |  |  | 
11 | Cc1ccc(S(N)(=O)=O)cc1 |  |  | 138 | not readily biodegradable |  |  | 
12 | O=[N+]([O-])c1c(Cl)cc(Cl)cc1Cl |  |  | 72 | not readily biodegradable |  |  | 
13 | Clc1ccc(C(c2ccc(Cl)cc2)C(Cl)Cl)cc1 | 350 | -5.87 | 110 |  | -5.18 | 10.1 | 4.21
14 | FC(F)(Br)Br | 25 | 2.91 | -110 |  |  |  | 
15 | FC(F)(F)C(F)(F)C(F)(F)N(C(F)(F)C(F)(F)C(F)(F)F)C(F)(F)C(F)(F)C(F)(F)F | 130 |  | -52 |  |  |  | 
16 | C=C(C)C(=O)OC1CCCCC1 |  |  |  | readily biodegradable |  |  | 
17 | CCCN(CCC)C(=O)COC(=O)c1ccccc1 |  |  | 20 |  |  |  | 
18 | c1ccc(N2CN(c3ccccc3)CN(c3ccccc3)C2)cc1 |  |  | 144 |  |  |  | 
19 | CCCCCCCCCC(N)=O |  |  | 108 |  |  |  | 
20 | Clc1ccc2nccnc2c1 |  |  | 64 |  |  |  | 

Row | Compound | boiling point [°C] | log10 vapour pressure (mmHg) | melting point [°C] | ready biodegradability | log10 Henry constant (atm·m³/mol) | log10 Koa | log10 Koc (L/kg)
21 | CC1CCCO1 (stereo unspecified) | 78 | 1.99 |  |  | -4.03 |  | 
22 | N#CCI | 185 |  |  |  |  |  | 
23 | COc1ccccc1NC(C)=O | 304 |  | 87.5 |  |  |  | 
24 | CCOC(=O)Cc1cccc2ccccc12 |  |  | 88.5 |  |  |  | 2.48
25 | CC(C)C[C@@H](NC(=O)[C@@H](O)[C@H](N)Cc1ccccc1)C(=O)O |  |  | 234 |  |  |  | 
26 | FC(F)=C(F)Br | -1 | 3.29 |  |  |  |  | 
27 | CCCOC/C(=N\c1ccc(Cl)cc1C(F)(F)F)n1ccnc1 |  | -5.85 | 63.5 |  |  |  | 
28 | CCCCC(CC)COP(=O)(O)OCC(CC)CCCC (stereo unspecified) |  |  | -50 | not readily biodegradable |  |  | 
29 | CCCCC1CO1 (stereo unspecified) |  |  | 94 |  |  |  | 
30 | CC12CCC(C1)C(C)(C)C2O (stereo unspecified) |  | -1.2 |  |  |  |  | 
31 | CC(C)(O)Cc1ccc(Cl)cc1 |  |  | 34 |  |  |  | 
32 | CC(=O)c1ccc(F)cc1 | 196 |  |  |  |  |  | 
33 | CC(O)C(=O)O (stereo unspecified) |  | -1.09 | 40.9 | readily biodegradable |  |  | 
34 | COc1ccc(Cl)cc1C(=O)NCCc1ccc(S(=O)(=O)NC(=O)NC2CCCCC2)cc1 |  |  | 169 |  |  |  | 
35 | C#C[C@]1(O)CC[C@H]2[C@@H]3CCc4cc(O)ccc4[C@H]3CC[C@@]21C |  |  | 183 |  |  |  | 
36 | O=C([O-])c1ccccc1.[NH4+] |  |  | 194 |  |  |  | 
37 | CCOC(C)CC (stereo unspecified) | 81 |  |  |  |  |  | 
38 | C#CC(C)(C)O | 104 | 1.2 | 3 |  | -5.41 |  | 
39 | CCOCC(=O)Cl | 125 |  |  |  |  |  | 
40 | CC(=O)OCCOCCOC(C)=O | 200 |  | 18 |  |  |  | 

Row | Compound | boiling point [°C] | log10 vapour pressure (mmHg) | melting point [°C] | ready biodegradability | log10 Henry constant (atm·m³/mol) | log10 Koa | log10 Koc (L/kg)
41 | CC(=O)F | 20.8 |  | -84 |  |  |  | 
42 | Cc1ccccc1N(C)C | 194 | -0.0643 | -60 |  |  |  | 
43 | O=S(=O)(Cl)c1cccs1 |  |  | 28 |  |  |  | 
44 | CC(CO)(CO)CO | 283 |  | 204 | not readily biodegradable |  |  | 
45 | BrC1CCC(Br)C(Br)CCC1Br (stereo unspecified) |  |  |  | not readily biodegradable |  |  | 
46 | Nc1ccc(S(=O)(=O)F)cc1 |  |  | 68.5 |  |  |  | 
47 | CCOC(=O)C1(C(=O)OCC)CCCC1 | 210 |  |  |  |  |  | 
48 | CCCCCCCCOC(=O)c1ccccc1C(=O)OCCCCCCCC |  | -7 |  | readily biodegradable |  |  | 4.38
49 | CC1(C)[C@H](C=C(Cl)Cl)[C@H]1C(=O)OCc1c(F)c(F)cc(F)c1F |  | -5.52 | 32 |  |  |  | 
50 | C=C(C)C=CC |  |  | 75.5 |  |  |  | 
51 | Clc1nc(Cl)c(Cl)c(Cl)c1Cl |  | -1.85 | 126 |  |  |  | 
52 | Clc1ccc2c(c1)Oc1cc(Cl)c(Cl)c(Cl)c1O2 |  | -8.12 | 172 |  | -5.12 |  | 
53 | CC=C(Cl)CCl | 130 |  |  |  |  |  | 
54 | CN(C)CC#N | 138 |  |  |  |  |  | 
55 | COc1cc(Cl)cc(OC)c1 | 234 |  | 35 |  |  |  | 
56 | C(#Cc1ccccc1)c1ccccc1 | 300 | -2.64 | 62.5 |  |  |  | 
57 | CC=C(C)C(C)C(C)=O (stereo unspecified) | 154 |  |  |  |  |  | 
58 | O=P(N1CC1)(N1CC1)N1CC1 |  |  | 41 |  |  |  | 
59 | CC[N+](C)(C)CCOC(=O)C(O)(c1ccccc1)c1ccccc1.[Cl-] |  |  | 213 |  |  |  | 
60 | CCOC(=O)Nc1ccccc1 | 238 |  | 53 |  |  |  | 1.82
